Common to all, as to type: cell-based, human
The test system of one assay is Jurkat cells. Put plainly: Single-dose CCK-8 cell viability screening (suspension cells). To be noted: Homo sapiens, Jurkat, 48 h. As to the method:
(§1) In this example, the anti-cancer properties of the BB analogues described in Table 1d were evaluated. Single-dose screening approach is used for initial testing to assess the cytotoxic effect of the BB analogues (also referred to as ‘BB compounds’) on Jurkat cells (human T cell leukaemia cells) and A549 cells (human lung cancer cells).
Method for Suspension Cells (Jurkat Cells)
5000 cells/90 uL were seeded in 96-well plates. 10 uL of 500 uM compound (10×) was added to each well in 6 replicates. The following controls were prepared.
Blank control: 10 uL 1% DMSO in media with no cells per well.
Positive control: 10 uL of 100 uM 5-flurouracil (10×) per well.
Negative control: 10 uL of 1% DMSO in media (10×) per well.
Each 96-well plate included 7 BB analogues and the complete set of controls (in 6 replicates).
(§2) Cells were incubated at 37° C.+5% CO2 for 46 hours. 10 uL of CCK8 solution was added to each well. Cells were then incubated at 37° C.+5% CO2 for 2 hours. Absorbance at 450 nm was measured using a multiplate reader.
(§3) Viability was calculated using the equation: […]
(§4) The benchmark in Table 2 was used to define the activities of each compound.

Assay [1] can be described thus: Single-dose CCK-8 cell viability screening (adherent cells). To be noted: Homo sapiens, average of A549 and Jurkat % viability, 50 uM, 48 h. As to the method: as §1
(§5) Method for Adherent Cells (A549 Cells)
(§6) In this example, 5000 cells/100 uL were seeded in 96-well plates and incubate at 37° C.+5% CO2 overnight. Media were replaced with 100 uL of 50 uM compound per well in 6 replicates. The following controls were prepared.
(§7) Blank control: 100 uL 0.1% DMSO in media with no cells per well.
(§8) Positive control: 100 uL of 10 uM 5-flurouracil per well.
(§9) Negative control: 100 uL of 0.1% DMSO in media per well.
(§10) Each 96-well plate included 7 compounds and the complete set of controls (in 6 replicates).
as §2, §3, §4

In another assay the test system is A549 cells. Described as above. To be noted: Homo sapiens, A549, 48 h, read-out: % Viability (50 uM, 48 h) A549. As to the method:
as §1, §5, §6, §7, §8, §9, §10, §2, §3, §4

[2] abbreviates: Jurkat cells, 50 uM, CCK-8, read-out: % Viability (50 uM, 48 h) Jurkat.
Setting [3] is: read-out: % Viability (50 uM, 48 h) Jurkat.

Where two headings read alike, the source gives them in different places.

For orientation: viability means a read-out of living cells in per cent, often relative to untreated cells.

As to `COc1ccc(N2C(=O)[C@H](OC(=O)c3ccccc3)[C@@]34[C@@H]2OC(=O)[C@@]32CC(=O)O[C@H]2C[C@@]4(O)C(C)(C)C)cc1` [JW093, (3aS,5aS,8R,9R,10aS)-9-(tert-butyl)-9-hydroxy-6-(4-methoxyphenyl)-2,4,7-trioxodecahydrofuro [3″,2″:2′,3′]cyclopenta [1′,2′:3,4]furo [2,3-b]pyrrol-8-yl benzoate], the viability at 50 µM amounted to 66.3% with Jurkat cells (setting [2]); 67.5% in assay [1] (A549, 48 h); 68.7% in the assay on A549 cells (A549 cells, 50 uM, 48 h, CCK-8).
`C=C(C)[C@@]1(C)C[C@@H]2OC(=O)C[C@@]23C(=O)O[C@@H]2N(c4ccccc4)NC(=O)[C@H](OC(C)=O)[C@]213` [XBB-075]: the viability at 50 µM in the assay with Jurkat cells (setting [2]) was found to be 101%; in assay [1] (A549, 48 h), 84%; in the assay on A549 cells (A549 cells, 50 uM, 48 h, CCK-8), 67.4%.
For `CC(C)(C)OC(=O)Nc1ccc(N2C(=O)[C@H](OC(=O)c3ccccc3)[C@@]34[C@@H]2OC(=O)[C@@]32CC(=O)O[C@H]2C[C@@]4(O)C(C)(C)C)cc1` [XBB-036], the viability at 50 µM was found to be 88.8% with Jurkat cells (setting [2]); 70.6% in assay [1] (A549, 48 h); 52.4% in the assay on A549 cells (A549 cells, 50 uM, 48 h, CCK-8).
Consider `C=C(C)[C@@]1(C)C[C@@H]2OC(=O)C[C@@]23C(=O)O[C@@H]2NC(=O)[C@H](O)[C@]213` [XBB-013], for which the viability at 50 µM was determined as 107% in the assay on Jurkat cells (setting [3]), 104% in assay [1] and 100% with A549 cells.
For `CC(C)(C)[C@]1(O)C[C@@H]2OC(=O)C[C@@]23C(=O)O[C@@H]2N(c4ccccc4)C(=O)[C@H](O)[C@]213` [JW116, (3aS,5aS,8R,8aS,9R,10aS)-9-(tert-butyl)-8,9-dihydroxy-6-phenyltetrahydro-4H,9H-furo[3″,2″:2′,3′]cyclopenta[1′,2′:3,4]furo[2,3-b]pyrrole-2,4,7(3H,8H)-trione], the viability at 50 µM in the assay with Jurkat cells (setting [3]) was determined as 105%; in assay [1] (A549, 48 h) it was 91.2%; with A549 cells, 77.7%.
Take `CC(C)(C)[C@]1(O)C[C@@H]2OC(=O)C[C@@]23C(=O)O[C@@H]2N(C4COC4)C(=O)[C@H](OC(=O)c4ccccc4)[C@]213` [DW182, (3aS,5aS,8R,8aS,9R,10aS)-9-(tert-butyl)-9-hydroxy-6-(oxetan-3-yl)-2,4,7-trioxooctahydro-4H,9H-furo [3″,2″:2′,3′]cyclopenta [1′,2′:3,4]furo [2,3-b]pyrrol-8-yl benzoate]: the viability at 50 µM in the assay on Jurkat cells (setting [2]) came to 101%; in assay [1] (A549, 48 h) it was 107%; in the assay on A549 cells (A549 cells, 50 uM, 48 h, CCK-8) it was 114%.
On to `CC(C)(C)[C@]1(O)C[C@@H]2OC(=O)C[C@@]23C(=O)O[C@@H]2N(CCC4CCNCC4)C(=O)C(OC(=O)c4ccccc4)[C@]213` (stereo in doubt) [XBB-024, 4-(2-((3aS,5aS,8S,8aS,9R,10aS)-8-(benzoyloxy)-9-(tert-butyl)-9-hydroxy-2,4,7-trioxohexahydro-4H,9H-furo [3″,2″:2′,3′]cyclopenta [1′,2′:3,4]furo[2,3-b]pyrrol-6(5aH)-yl)ethyl)piperidin-1-ium chloride], for which the viability at 50 µM came out at 97.8% in the assay on Jurkat cells (setting [2]); 96.2% in assay [1] (A549, 48 h); 94.7% in the assay with A549 cells (A549 cells, 50 uM, 48 h, CCK-8).
On the same counts, the results for `CC(C)(C)[C@]1(O)C[C@@H]2OC(=O)C[C@@]23C(=O)O[C@@H]2N(c4ccc5ccccc5c4)C(=O)[C@H](OC(=O)c4ccccc4)[C@]213` [JW094, (3aS,5aS,8R,9R,10aS)-9-(tert-butyl)-9-hydroxy-6-(naphthalen-2-yl)-2,4,7-trioxodecahydrofuro [3″,2″:2′,3′]cyclopenta [1′,2′:3,4]furo [2,3-b]pyrrol-8-yl benzoate] are 76.9%, 76.7% and 76.5%.
On to `CC(C)(C)[C@]1(O)C[C@@H]2OC(=O)C[C@@]23C(=O)O[C@@H]2N(c4cccc(C(F)(F)F)c4)C(=O)[C@H](OC(=O)c4ccccc4)[C@]213` [JW100, (3aS,5aS,8R,9R,10aS)-9-(tert-butyl)-9-hydroxy-2,4,7-trioxo-6-(3-(trifluoromethyl)phenyl)octahydro-4H,9H-furo [3″,2″:2′,3′]cyclopenta [1′,2′:3,4]furo [2,3-b]pyrrol-8-yl benzoate], for which the viability at 50 µM is 68.2% with Jurkat cells (setting [3]); 61.1% in assay [1] (A549, 48 h); 54% in the assay with A549 cells.
Regarding `CN1C(=O)[C@H](OC(=O)c2ccccc2)[C@@]23[C@@H]1OC(=O)[C@@]21CC(=O)O[C@H]1C[C@@]3(O)C(C)(C)C` [DW168, (3aS,5aS,8R,8aS,9R,10aS)-9-(tert-butyl)-9-hydroxy-6-methyl-2,4,7-trioxooctahydro-4H,9H-furo [3″,2″:2′,3′]cyclopenta [1′,2′:3,4]furo[2,3-b]pyrrol-8-ylbenzoate], the viability at 50 µM in the assay with Jurkat cells (setting [2]) stood at 101%; in assay [1] (A549, 48 h), 103%; in the assay with A549 cells (A549 cells, 50 uM, 48 h, CCK-8), 105%.
Turning to `CC(C)(C)[C@]1(O)C[C@@H]2OC(=O)C[C@@]23C(=O)O[C@@H]2N(CC4CC4)C(=O)[C@H](OC(=O)c4ccccc4)[C@]213` [DW189, (3aS,5aS,8R,8aS,9R,10aS)-9-(tert-butyl)-6-(cyclopropylmethyl)-9-hydroxy-2,4,7-trioxooctahydro-4H,9H-furo [3″,2″:2′,3′]cyclopenta [1′,2′:3,4]furo[2,3-b]pyrrol-8-yl benzoate], the viability at 50 µM with Jurkat cells (setting [2]) was found to be 95.3%; in assay [1] (A549, 48 h), 101%; in the assay with A549 cells (A549 cells, 50 uM, 48 h, CCK-8) it was 107%.
Regarding `CC(C)(C)[C@]1(O)C[C@@H]2OC(=O)C[C@@]23C(=O)O[C@@H]2N(Cc4ccccc4)C(=O)[C@H](OC(=O)c4ccccc4)[C@]213` [XBB-016], the viability at 50 µM in the assay on Jurkat cells (setting [2]) stood at 107%; in assay [1] (A549, 48 h) it was 106%; in the assay on A549 cells (A549 cells, 50 uM, 48 h, CCK-8), 105%.
On to `CC(=O)O[C@H]1C(=O)N(CC2CCN(C(=O)OC(C)(C)C)CC2)[C@H]2OC(=O)[C@]34CC(=O)O[C@H]3C=C(C(C)(C)C)[C@@]214` [XBB-060], for which the viability at 50 µM turned out to be 104% with Jurkat cells (setting [2]); 106% in assay [1] (A549, 48 h); 108% with A549 cells (A549 cells, 50 uM, 48 h, CCK-8).
On to `CC(C)(C)[C@]1(O)C[C@@H]2OC(=O)C[C@@]23C(=O)O[C@@H]2N(c4ccc(F)cc4)C(=O)[C@H](OC(=O)c4ccccc4)[C@]213` [P-28, (3aS,5aS,8R,9R,10aS)-9-(tert-butyl)-9-hydroxy-2,4,7-trioxo-6-(4-fluorophenyl)octahydro-4H,9H-furo [3″,2″:2′,3′]cyclopenta [1′,2′:3,4]furo [2,3-b]pyrrol-8-yl benzoate], for which the viability at 50 µM in the assay on Jurkat cells (setting [3]) worked out at 69.2%; in assay [1] (A549, 48 h), 72.7%; in the assay with A549 cells it was 76.2%.
For `CC(C)(C)[C@]1(O)C[C@@H]2OC(=O)C[C@@]23C(=O)O[C@@H]2N(CC4CCC4)C(=O)[C@H](OC(=O)c4ccccc4)[C@]213` [DW184, (3aS,5aS,8R,8aS,9R,10aS)-9-(tert-butyl)-6-(cyclobutylmethyl)-9-hydroxy-2,4,7-trioxooctahydro-4H,9H-furo [3″,2″:2′,3′]cyclopenta [1′,2′:3,4]furo [2,3-b]pyrrol-8-yl benzoate], the viability at 50 µM is 68.7% in the assay with Jurkat cells (setting [2]); 81.1% in assay [1] (A549, 48 h); 93.5% in the assay on A549 cells (A549 cells, 50 uM, 48 h, CCK-8).
With `CC(C)(C)OC(=O)N1CCC(CCN2C(=O)[C@H](OC(=O)c3ccccc3)[C@@]34[C@@H]2OC(=O)[C@@]32CC(=O)O[C@H]2C[C@@]4(O)C(C)(C)C)CC1` [XBB-023, tert-butyl 4-(2-((3aS,5aS,8R,8aS,9R,10aS)-8-(benzoyloxy)-9-(tert-butyl)-9-hydroxy-2,4,7-trioxohexahydro-4H,9H-furo[3″,2″:2′,3′]cyclopenta[1′,2′:3,4]furo[2,3-b]pyrrol-6(5aH)-yl)ethyl)piperidine-1-carboxylate], the viability at 50 µM in the assay with Jurkat cells (setting [2]) was found to be 71.3%; in assay [1] (A549, 48 h) it was 71.7%; in the assay on A549 cells (A549 cells, 50 uM, 48 h, CCK-8) it was 72.1%.
Consider `CC(C)(C)[C@]1(O)C[C@@H]2OC(=O)C[C@@]23C(=O)O[C@@H]2NC(=O)[C@H](OC(=O)c4ccccc4)[C@]213` [XBB-004, (3aS,5aS,8R,8aS,9R,10aS)-9-(tert-butyl)-9-hydroxy-2,4,7-trioxooctahydro-4H,9H-furo[3″,2″:2′,3′]cyclopenta[1′,2′:3,4]furo[2,3-b]pyrrol-8-yl benzoate], for which the viability at 50 µM stood at 95% with Jurkat cells (setting [3]), 96.7% in assay [1] and 98.5% in the assay on A549 cells.

For the origin of these results see US20250144069A1, “BILOBALIDE DERIVATIVE COMPOUNDS FOR TREATING NEUROLOGICAL DISEASES AND CANCERS” (The Chinese University of Hong Kong, priority 2023, published 2025).
